In patent US10703746B2, “Mutant IDH1 inhibitors useful for treating cancer” (THE UNITED STATES OF AMERICA, AS REPRESENTED BY THE …, priority 2014, dated 2020):

Tests used:
IDH1 R132C = IDH1 R132C (Homo sapiens, UniProt O75874, R132C); assay: IDH1 R132C enzymatic assay (NADPH depletion coupled to diaphorase/resazurin); format: biochemical; details: IDH1 R132C enzymatic inhibition, IC50 class
Procedure: (§1) Assays were conducted in a 1536-well black solid-bottom plate with a final assay volume of 9 μL.
For IDH1 R132C, 3 μL of enzyme (0.00032 mg/mL IDH1 […], 10% glycerol, 50 mM potassium phosphate pH 6.5, 5 mM MgCl2, 0.03% BSA) were added to the plate, followed by the addition of 23 nL of test compound in DMSO. The plate was lidded and incubated at room temperature for 30 minutes at which time 3 μL of substrate were added (0.012 mM NADPH, 0.6 mM α-KG, 10% glycerol, 50 mM potassium phosphate pH 6.5, 5 mM MgCl2, 0.03% BSA). […]

IDH1 R132H = IDH1 R132H (Homo sapiens, UniProt O75874, R132H); assay: IDH1 R132H enzymatic assay (NADPH depletion coupled to diaphorase/resazurin); format: biochemical; details: IDH1 R132H enzymatic inhibition, IC50 class
Sequence of IDH1 R132H (O75874 whole entry R132H): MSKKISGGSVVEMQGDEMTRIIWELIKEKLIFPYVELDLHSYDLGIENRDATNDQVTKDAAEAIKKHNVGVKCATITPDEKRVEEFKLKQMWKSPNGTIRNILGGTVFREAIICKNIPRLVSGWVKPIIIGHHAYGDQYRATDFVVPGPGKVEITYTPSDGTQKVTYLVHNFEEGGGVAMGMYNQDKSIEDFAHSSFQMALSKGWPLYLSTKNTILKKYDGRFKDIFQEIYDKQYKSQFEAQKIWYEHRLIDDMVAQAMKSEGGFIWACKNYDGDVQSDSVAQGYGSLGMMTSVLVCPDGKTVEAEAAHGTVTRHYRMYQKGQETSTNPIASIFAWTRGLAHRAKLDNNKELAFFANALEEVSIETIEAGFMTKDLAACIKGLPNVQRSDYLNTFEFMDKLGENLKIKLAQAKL
Procedure: as §1
Specifically, for IDH1 R132H, 3 μL of enzyme (4 mM β-ME, 0.0005 mg/mL IDH1 R132H, 150 mM NaCl, 20 mM Tris pH 7.5, 10 mM MgCl2, 0.05% BSA) were added to the plate, followed by the addition of 23 nL of test compound in DMSO. The plate was lidded and incubated at room temperature for 30 minutes at which time 3 μL of substrate were added (0.016 mM NADPH, 2 mM α-KG, 150 mM NaCl, 20 mM Tris pH 7.5, 10 mM MgCl2, 0.05% BSA). This reaction was incubated at room-temperature for 60 minutes at which time the detection mix was added (0.06 mg/mL diaphorase, 0.036 mM resazurin, 150 mM NaCl, 20 mM Tris pH 7.5, 10 mM MgCl2, 0.05% BSA). […]

Sequence of IDH1 R132C (O75874 whole entry R132C): as the sequence (O75874 whole entry R132H) above, with H132C counted along it

Row | SMILES | IC50 (IDH1 R132C) [nM] | IC50 (IDH1 R132H) [nM]
1 | CCCCc1ccc(-c2nc(-c3cc(C(=O)N4CCNCC4)c(CC(C)C)n(-c4c(CC)cccc4CC)c3=O)sc2C)cc1 [Compound 44] | 1000 to 5000 | 1000 to 5000
2 | COc1cccc(C(=O)O)c1-n1c2c(cc(-c3nc(-c4ccc(Cl)cc4)cs3)c1=O)C(=O)CC(C)(C)C2 [Compound 46] | 1000 to 5000 | 1000 to 5000
3 | CCc1cccc(CC)c1-n1c(C(C)C)c(C(=O)N[C@H](C)CO)cc(-c2nc(-c3ccc(Cl)cc3)cs2)c1=O [Compound 47] | 1000 to 5000 | 1000 to 5000
4 | CCc1cccc(CC)c1-n1c(CC(C)C)c(C(=O)N2CCNC(C(N)=O)C2)cc(-c2nc(-c3ccc(Cl)cc3)cs2)c1=O (centres unmarked) [Compound 48] | < 300 | 300 to 1000
5 | CC1(C)CC(=O)c2cc(-c3nc(-c4ccc(Cl)cc4)cs3)c(=O)n(-c3ccccc3Oc3ccccc3)c2C1 [Compound 49] | < 300 | < 300
6 | CC1(C)CC(=O)c2cc(-c3nc(-c4ccc(Cl)cc4)cs3)c(=O)n(-c3ccccc3C3CC3)c2C1 [Compound 50] | 300 to 1000 | 300 to 1000
7 | CC(C)Sc1ccccc1-n1c2c(cc(-c3nc(-c4ccc(Cl)cc4)cs3)c1=O)C(=O)CC(C)(C)C2 [Compound 51] | 1000 to 5000 | > 20000
8 | COc1cccc(C)c1-n1c2c(cc(-c3nc(-c4ccc(Cl)cc4)cs3)c1=O)C(=O)CC(C)(C)C2 [Compound 52] | 1000 to 5000 | 1000 to 5000
9 | CCc1cccc(CC)c1-n1c(C)c(C(=O)N2CCN(C)CC2)cc(-c2nc(-c3ccc(Cl)cc3)cs2)c1=O [Compound 53] | 300 to 1000 | 1000 to 5000
10 | CCc1cccc(CC)c1-n1c(CC(C)C)c(C(=O)NC(C)(C)CO)cc(-c2nc(-c3ccc(Cl)cc3)cs2)c1=O [Compound 54] | 300 to 1000 | 300 to 1000
11 | CC(C)n1c2c(cc(-c3nc(-c4ccc(Cl)cc4)cs3)c1=O)C(=O)CC(C)(C)C2 [Compound 55] | 1000 to 5000 | > 20000
12 | CN(C)c1ccccc1-n1c2c(cc(-c3nc(-c4ccc(Cl)cc4)cs3)c1=O)C(=O)CC(C)(C)C2 [Compound 56] | 300 to 1000 | 300 to 1000
13 | CC1(C)CC(=O)c2cc(-c3nc(-c4ccc(Cl)cc4)cs3)c(=O)n(-c3ccccc3C(F)(F)F)c2C1 [Compound 57] | < 300 | 300 to 1000
14 | CCc1cccc(C(=O)O)c1-n1c2c(cc(-c3nc(-c4ccc(Cl)cc4)cs3)c1=O)C(=O)CC(C)(C)C2 [Compound 58] | 1000 to 5000 | 300 to 1000
15 | COc1cccc(OC)c1-n1c2c(cc(-c3nc(-c4ccc(Cl)cc4)cs3)c1=O)C(=O)CC(C)(C)C2 [Compound 59] | 1000 to 5000 | 1000 to 5000
16 | CCc1cccc(CC)c1-n1c(C)c(C(=O)N2CCN[C@H](C(=O)O)C2)cc(-c2nc(-c3ccc(Cl)cc3)cs2)c1=O [Compound 60] | 300 to 1000 | 300 to 1000
17 | CCc1cccc(CC)c1-n1c(CC(C)C)c(C(=O)N2[C@H](C)CNC[C@@H]2C)cc(-c2nc(-c3ccc(Cl)cc3)cs2)c1=O [Compound 61] | < 300 | 300 to 1000
18 | COc1ccc(OC)c(-n2c(C)ccc(-c3nc(-c4ccc(Cl)cc4)cs3)c2=O)c1 [Compound 62] | 5000 to 20000 | > 20000
19 | CCc1cccc(CC)c1-n1c(CC(C)C)c(C(=O)N2CC(O)C2)cc(-c2nc(-c3ccc(Cl)cc3)cs2)c1=O [Compound 63] | 300 to 1000 | 1000 to 5000
20 | CCc1cccc(CC)c1-n1c(CC(C)C)c(C(=O)N[C@H](C)CO)cc(-c2nc(-c3ccc(Cl)cc3)cs2)c1=O [Compound 64] | 300 to 1000 | 1000 to 5000
21 | COc1ccc(OC)c(-n2c3c(cc(-c4cn(-c5ccc(Cl)cc5)cn4)c2=O)C(=O)CC(C)(C)C3)c1 [Compound 65] | 5000 to 20000 | > 20000
22 | CCc1cccc(CC)c1-n1c(C)c(C(=O)N2CCCNCC2)cc(-c2nc(-c3ccc(Cl)cc3)cs2)c1=O [Compound 66] | 300 to 1000 | 300 to 1000

Row | SMILES | IC50 (IDH1 R132C) [nM] | IC50 (IDH1 R132H) [nM]
23 | CCc1cccc(CC)c1-n1c(C)c(C(=O)N2CCCCC2C(=O)O)cc(-c2nc(-c3ccc(Cl)cc3)cs2)c1=O (centres unmarked) [Compound 67] | 5000 to 20000 | 1000 to 5000
24 | COc1ccc(OC)c(-n2c(=O)c(-c3nc(-c4ccc(Cl)cc4)cs3)cc3c(O)cccc32)c1 [Compound 68] | > 20000 | > 20000
25 | COc1ccc(OC)c(-n2c3c(cc(-c4nc(C5CCCCC5)cs4)c2=O)C(=O)CC(C)(C)C3)c1 [Compound 69] | 1000 to 5000 | 1000 to 5000
26 | CCc1cccc(CC)c1-n1c(CC(C)C)c(C(=O)N2CCNC(C)(C)C2)cc(-c2nc(-c3ccc(Cl)cc3)cs2)c1=O [Compound 70] | < 300 | 300 to 1000
27 | Cc1ccc(-c2csc(-c3cc4c(n(-c5ccccc5C(F)(F)F)c3=O)CC(C)(C)CC4=O)n2)cc1 [Compound 71] | 300 to 1000 | 300 to 1000
28 | Cc1cc(-n2c3c(cc(-c4nc(-c5ccc(Cl)cc5)cs4)c2=O)C(=O)CC(C)(C)C3)n(C)n1 [Compound 72] | 1000 to 5000 | 1000 to 5000
29 | COc1ccc(OC)c(-n2c3c(cc(-c4nc(-c5ccc(Cl)cc5)cs4)c2=O)CCC(C)(C)C3)c1 [Compound 73] | 1000 to 5000 | 1000 to 5000
30 | CCc1cccc(CC)c1-n1c2c(cc(-c3nc(-c4ccc(Cl)cc4)cs3)c1=O)C(=O)NC2 [Compound 74] | 5000 to 20000 | 1000 to 5000
31 | CCc1cccc(CC)c1-n1c(CC(C)C)c(C(=O)N2CCNCC2C(=O)O)cc(-c2nc(-c3ccc(Cl)cc3)cs2)c1=O (centres unmarked) [Compound 75] | 300 to 1000 | 1000 to 5000
32 | CCc1cccc(CC)c1-n1c(CC(C)C)c(C(=O)N2CCNCC2)cc(-c2nc(-c3ccc(C)cc3)c(C)s2)c1=O [Compound 76] | < 300 | < 300
33 | CCc1cccc(CC)c1-n1c(CC(C)C)c(C(=O)NCC(C)(C)O)cc(-c2nc(-c3ccc(Cl)cc3)cs2)c1=O [Compound 77] | < 300 | 300 to 1000
34 | COc1ccc(OC)c(-n2cccc(-c3nc(-c4ccc(Cl)cc4)cs3)c2=O)c1 [Compound 78] | > 20000 | > 20000
35 | O=c1[nH]cccc1-c1nc(-c2ccc(Cl)cc2)cs1 [Compound 79, 3-(4-(4-chlorophenyl)thiazol-2-yl)pyridin-2(1H)-one] | > 20000 | > 20000
36 | CCc1cccc(CC)c1-n1c(CC(C)C)c(C(=O)N2CCNC(C)(C(=O)O)C2)cc(-c2nc(-c3ccc(Cl)cc3)cs2)c1=O (centres unmarked) [Compound 80] | < 300 | 300 to 1000
37 | CCc1cccc(CC)c1-n1c(CC(C)C)c(C(=O)N2CCNCC2)cc(-c2nc(-c3ccccc3)c(C)s2)c1=O [Compound 81] | 300 to 1000 | < 300
38 | CCc1cccc(CC)c1-n1c(CC(C)C)c(C(=O)N2CCNCC2)cc(-c2nc(-c3ccc(Cl)cc3)c(C)s2)c1=O [Compound 82] | < 300 | < 300
39 | CCc1cccc(CC)c1-n1c(C)c(C(=O)N2CCN[C@@H](C(=O)OC)C2)cc(-c2nc(-c3ccc(Cl)cc3)cs2)c1=O [Compound 83] | 300 to 1000 | 1000 to 5000
40 | CCc1cccc(CC)c1-n1c(C(C)C)c(C(=O)N2CCNC(CO)C2)cc(-c2nc(-c3ccc(Cl)cc3)cs2)c1=O (centres unmarked) [Compound 84] | < 300 | 300 to 1000
41 | CC1(C)CC(=O)c2cc(-c3nc(-c4ccc(C(F)(F)F)cc4)cs3)c(=O)n(-c3ccccc3C(F)(F)F)c2C1 [Compound 85] | 300 to 1000 | 300 to 1000
42 | CCc1cccc(CC)c1-n1c(C(C)C)c(C(=O)N2CCNCC2)cc(-c2nc(-c3ccc(Cl)cc3)cs2)c1=O [Compound 86] | < 300 | 300 to 1000
43 | CCc1cccc(CC)c1-n1c(CC(C)C)c(C(=O)N2CCNCC2)cc(-c2nc(-c3ccc(C(=O)N4CCOCC4)cc3)c(C)s2)c1=O [Compound 87] | 5000 to 20000 | 5000 to 20000
